Data: the SangsterLogP compilation

Compound | logP
CC(=O)Oc1cc(O[C@H](C)CCCc2ccccc2)cc2c1[C@@H]1C[C@H](O)CC[C@H]1[C@H](C)N2 | 5.7
CC1=CCC2C(C1)c1c(O)cc(NS(C)(=O)=O)cc1OC2(C)C (centres undefined) | 3.12
C=C1CC[C@@H]2[C@@H](C1)c1c(OCc3ccc(-c4ccccc4)cc3)cc(CCCCC)cc1OC2(C)C | 11.3
C=C1C[C@H]2c3c(O)cc(CCCCC)cc3OC(C)(C)[C@@H]2C[C@H]1O | 4.24
CCCCCc1cc(OCCCCN)c2c(c1)OC(C)(C)C1CC=C(C)CC21 (centres undefined) | 8.38
CCCCCCC(C)(C)c1cc(O)c2c(c1)OC(C)(C)C1CC=C(C)CC21 (centres undefined) | 9.96
CCCCCc1cc(O)c2c(c1)OC(C)(C)[C@@H]1CCC(CO)=C[C@@H]21 | 5.33
CCCCCC(C)C(C)c1cc(O)c2c(c1)OC(C)(C)C1=C2CC(C)CC1 (centres undefined) | 8.3
CCCCCCC(C)(C)c1cc(O)c2c(c1)OC(C)(C)C1CCC(CO)=CC21 (centres undefined) | 7.83
CCCCCCC(C)(C)c1ccc(C2CC(O)CCC2CCCCO)c(O)c1 (centres undefined) | 6.68
CCCCCCC(C)(C)c1ccc([C@@H]2C[C@H](O)C[C@@H]3CC[C@H](CO)C[C@H]32)c(O)c1 | 6.13
CCCC(C)(C)c1ccc(C2CCCC(O)C2)c(O)c1 (centres undefined) | 4.82
CCCCCCC(C)(C)c1ccc(C2CC(O)CCC2C)c(O)c1 (centres undefined) | 7.49
CCCCCCC(C)(C)c1ccc(C2CCCC(O)C2)c(O)c1 (centres undefined) | 6.68
CCCCCc1cc(OCc2ccc(-c3ccccc3)cc2)c2c(c1)OC(C)(C)C1CC=C(C)CC21 (centres undefined) | 10.9
C=C(C)[C@@H]1CCC(C)=C[C@H]1c1c(O)cc(CCCCC)cc1O | 5.79
CCCCCc1cc(OC)c2c(c1)OC(C)(C)[C@@H]1CC=C(C)C[C@@H]21 | 8.06

Compound | logP
CC(C)(C)c1ccc(C2CCCC(O)C2)c(O)c1 (centres undefined) | 4.05
CCCCCc1cc(O)c2c(c1)OC(C)(C)c1ccc(C)cc1-2 | 6.23
CCCCCc1cc(OCCCCCN2CC(=O)c3ccccc3C2=O)c2c(c1)OC(C)(C)C1CC=C(C)CC21 (centres undefined) | 9.07
C=C1CCC2C(C1)c1c(OC)cc(CCCCC)cc1OC2(C)C (centres undefined) | 7.62
CCCCCCCCC(C)(C)c1ccc([C@H]2CCC[C@@H](O)C2)c(O)c1 | 8.16
CCCCCCC(C)(C)c1ccc(C2CC(O)CCC2CCCO)c(O)c1 (centres undefined) | 6.13
CCCCCCC(C)(C)c1cc(O)c2c(c1)OC(C)(C)C1CC=C(CO)CC21 (centres undefined) | 7.44
CC(=O)Oc1cc(OC(C)CCCc2ccccc2)cc2c1C1CC(O)CCC1C(C)N2C (centres undefined) | 5.72
CCCCCCC(C)(C)c1cc(O)c2c(c1)OC(C)(C)C1CCC(C=O)=CC21 (centres undefined) | 8.03
CCCCCCCC(C)(C)c1ccc([C@H]2CCC[C@@H](O)C2)c(O)c1 | 7.18
C=C1CCC2C(C1)c1c(OC)cc(CCC)cc1OC2(C)C (centres undefined) | 6.26
CCCCCCCCCCC(C)(C)c1ccc(C2CCCC(O)C2)c(O)c1 (centres undefined) | 8.42
CCCCCc1cc(O)c2c(c1)OC(C)(C)C1CC=C(C)CC21 (centres undefined) | 7.41
CCCCCc1cc(O)c2c(c1)OC(C)(C)[C@@H]1CC=C(C(=O)O)C[C@@H]21 | 3.51
CCC(C)(C)c1ccc(C2CCCC(O)C2)c(O)c1 (centres undefined) | 4.32
CCCCC(C)(C)c1ccc(C2CCCC(O)C2)c(O)c1 (centres undefined) | 5.43
CCCCCC(C)(C)c1ccc([C@H]2CCC[C@@H](O)C2)c(O)c1 | 5.97
